Laboratory results taken from patent US12410141B2, “Anti-cancer spirocyclic-guanidine compounds and uses thereof” (The Johns Hopkins University, priority 2020, dated 2025).
pIC50: −log10 of the molar value. Where “and” joins values, the source holds several entries; their conditions need not be identical. Equal entries are not always repeated.

What was measured:
[1] = system: high molecular weight polyubiquitinated proteins in SKOV3 cells; test: Western blot for polyubiquitinated proteins, SKOV3 cells; assay type: cell-based; conditions: 12 hr, Up284 and RA475 0.5 and 1 μM, RA190 1 μM
Procedure: Cell lysate (10-20 μg total protein) prepared in MPER (Pierce) from each sample was subjected to SDS-PAGE, transferred to PVDF membranes and analyzed by Western blot using antibodies specific for ubiquitin (P4D1, sc-8017, Santa Cruz), or after stripping antibody for actin (#66009, Protein Tech Group), at the dilutions recommended by the manufacturers, and for secondary antibodies either peroxidase-linked anti-mouse IgG or anti-rabbit IgG (GE Healthcare UK Ltd) were utilized at the recommended dilution. The blots were developed using HyGLO chemiluminescent detection reagent (Denville).
Like RA190, RA475 was designed to be an inhibitor of upstream 19S RP proteasome function. […] Treatment with the same doses of Up284 (0.5 and 1 μM) or 1 μM RA190 provided positive controls, and vehicle alone (DMSO) was used as the negative control. At the end of the incubation, attached cells were lysed using MPER buffer according to the manufacturer's protocol. The lysates were subjected to Western blot analysis using antibody to ubiquitin, and then stripped and re-probed with actin antibody to provide a loading control (FIG. 5).
Proteasome inhibitors cause a rapid accumulation of polyUb proteins that is associated with unresolved UPR stress and the induction of apoptosis. Since RA475 is cytotoxic to ovarian cancer cells (Table 1), and induces such a rapid accumulation of polyUb proteins (FIG. 5), it was examined whether RA475 also triggered apoptosis. SKOV3 cells (FIG. 5A) were treated with Up284 (0.5 μM and 1 μM), 1 μM RA190, RA475 (0.5 μM and 1 μM) or vehicle alone (DMSO) and then cultured for 12 hr. OVCAR3 cells (FIG. 5B) were treated with Up284 (0.5 μM), Bortezomib (Bz, 0.25 μM), Ixazomib (Iz, 0.25 μM), RA475 (0.5 μM and 1 μM) or vehicle alone (DMSO). The attached cells were harvested and their lysates were subjected to Western blot analysis, first probed with antibody to ubiquitin and then to actin.

[2] = Microsomal stability, human liver microsomes; assay type: in vitro ADME; conditions: for % Drug Remaining: Human Liver Microsomes
Procedure: Human and mouse liver microsomes and NADPH regenerating system solutions were purchased from Corning Life Sciences (Tewsbury, MA). Human and mouse K2EDTA was purchased from BioIVT (Westbury, NY). Metabolic studies in liver microsomes (0.125 mg/mL) were conducted in 1× phosphate buffered saline (pH 7.4), NADPH-generating system, and 10 μM of RA475 in a final volume of 250 μl. An incubation mixture with and without NADPH-generating system as well as a neat solution without microsomes and NADPH-generating system were prepared. RA475 was added at the same concentration level into human and mouse EDTA plasma. All reactions were initiated with the addition of RA475. Incubations were performed in glass tubes maintained at 37° C. in a shaker bath. At 0, 30, and 60 minutes, 10 μL aliquots were sampled from the reaction mixture and 0.5 mL of acetonitrile containing internal standard (Up284) was added to each samples. Samples were vortex-mixed and underwent centrifugation for 5 min at 1430×g. A 10 μL aliquot of the supernatant was injected onto the LC-MS instrument for qualitative analysis using a temperature-controlled autosampling device operating at 5° C. Chromatographic analysis was performed using a Waters Acquity™ Ultra Performance LC. […] The mobile phase used for the chromatographic separation was composed of water (mobile phase A) and acetonitrile (mobile phase B) containing 0.1% (v/v) formic acid with a flow rate of 0.3 mL/min. The initial mobile phase composition was 80% mobile phase A and 20% mobile phase B. From 0.5 to 1 min, mobile phase B was increased linearly from 20% to 100%. From 1 to 3 min, mobile phase B was maintained at 100%. From 3.0 to 3.1 min, the gradient decreased to 20% mobile phase B and the conditions were maintained until 4.1 min to re-equilibrate the column for the next injection. The column effluent was monitored using an AB Sciex 5500 triple quadrupole mass spectrometer. The instrument was equipped with an electrospray interface, operated in a positive mode and controlled by the Analyst v1.6 software. For the stability study, the mass spectrometer was programmed to monitor the following MRM transition 408.2→366.1 for RA475 and 366.2→155.8 for UP284 (internal standard). Results were assessed qualitatively comparing the average area ratio of RA475 at 0 hr to area ratio at 30 and 60 minutes for both mouse and human liver microsomes. RA475 was not analyzed for metabolites due to the concentration of RA475 not decreasing.

[3] = assay type: in vitro ADME, murine and human
Procedure: Human and mouse liver microsomes and NADPH regenerating system solutions were purchased from Corning Life Sciences (Tewsbury, MA). Human and mouse K2EDTA was purchased from BioIVT (Westbury, NY). Metabolic studies in liver microsomes (0.125 mg/mL) were conducted in 1× phosphate buffered saline (pH 7.4), NADPH-generating system, and 10 μM of RA475 in a final volume of 250 μl. An incubation mixture with and without NADPH-generating system as well as a neat solution without microsomes and NADPH-generating system were prepared. RA475 was added at the same concentration level into human and mouse EDTA plasma. All reactions were initiated with the addition of RA475. Incubations were performed in glass tubes maintained at 37° C. in a shaker bath. At 0, 30, and 60 minutes, 10 μL aliquots were sampled from the reaction mixture and 0.5 mL of acetonitrile containing internal standard (Up284) was added to each samples. Samples were vortex-mixed and underwent centrifugation for 5 min at 1430×g. […] The column effluent was monitored using an AB Sciex 5500 triple quadrupole mass spectrometer. […] Results were assessed qualitatively comparing the average area ratio of RA475 at 0 hr to area ratio at 30 and 60 minutes for both mouse and human liver microsomes. RA475 was not analyzed for metabolites due to the concentration of RA475 not decreasing. […]

MC38 = test: MTT cytotoxicity assay, MC38; assay type: cell-based; conditions: MC38, colon, 72 hr, read-out: IC50, cell killing
Procedure: (§1) All cell lines were obtained from the American Type Culture Collection (ATCC) and cultured in the specified medium supplemented with 10% fetal bovine serum, 100 IU/mL penicillin, and 100 μg/mL streptomycin at 37° C. in a humidified 5% CO2/95% air incubator. To assess drug cytotoxicity cells were seeded at 2,500 cells/well (10,000 cells/well for MM lines and primary cells) in 100 μL medium in 96-well plate. […]
(§2) It was examined whether the RPN13 inhibitor, RA475, was cytotoxic for cancer cell lines using the MTT assay.

[4] = system: 4T1 cells stably expressing 4UbFL; test: 4UbFL proteasome reporter, 4T1 cells; assay type: cell-based; conditions: 4 hr treatment, IVIS imager
Procedure: Data are presented as IVIS image (FIG. 8A) and bioluminescence units (FIG. 8B).
4T1 and HCC1806 cells were transfected with 4UbFL plasmid using TransIT2020 transfection reagent for a period of 48 hrs and cells were selected using G418 antibiotic from single colonies. Selected cells were seeded in a 24-well plate (50,000/well) and incubated for 18 h at 37° C. in an incubator. Next, cells were treated with compounds for the period of 4 hr and Luciferin was added (50 uL each well, 7.8 mg/mL) and imaged through an IVIS200 instrument and plotted as a bioluminescent value or fold increase to DMSO control.

OVCAR3 = test: MTT cytotoxicity assay, OVCAR3; assay type: cell-based; conditions: OVCAR3, ovarian, 72 hr, read-out: IC50, cell killing
Procedure: as §1, §2

SKOV3 = test: MTT cytotoxicity assay, SKOV3; assay type: cell-based; conditions: SKOV3, ovarian, 72 hr, read-out: IC50, cell killing
Procedure: as §1, §2

Q: Which “accumulation of polyUb proteins” value [1] does the source give for `N#Cc1ccc(/C=C2/C(=O)/C(=C/c3ccc(C#N)cc3)C23CCNCC3)cc1` [Up284, reference compound] here?
A: profound accumulation

Q: What about the “% Drug Remaining” value ([2]; NADPH Neg, 0 minutes) of the same compound?
A: 100%

Q: What about the “% Drug Remaining” value ([2]; NADPH Neg, 30 minutes) of the same compound?
A: 57%

Q: What about the “% Drug Remaining” value ([2]; NADPH Neg, 60 minutes) of the same compound?
A: 52%

Q: And the “% Drug Remaining” value ([2]; NADPH Pos, 0 minutes)?
A: 100%

Q: What about the “% Drug Remaining” value ([2]; NADPH Pos, 30 minutes) of the same compound?
A: 43%

Q: What about the “% Drug Remaining” value ([2]; NADPH Pos, 60 minutes) of the same compound?
A: 43%

Q: And the non-enzymatic degradation [3]?
A: ~50%

Q: What about the “additional degradation by CYP450 activity” value ([3]; microsomes) of the same compound?
A: 9-13%

Q: With `Cl.Cl.N#Cc1ccc(/C=C2/C(=O)/C(=C/c3ccc(C#N)cc3)C23CCN(C(=N)N)CC3)cc1` [RA475] as the compound, how does the “accumulation of polyUb proteins” value [1] read?
A: very significant increase in a dose-dependent manner

Q: And the pIC50 (MC38)?
A: 6.44

Q: And the “bioluminescence of 4UbFL reporter” value [4]?
A: dose-dependent increase

Q: What about the pIC50 (OVCAR3) of the same compound?
A: 6.72

Q: What about the “% Drug Remaining” value ([2]; NADPH Neg, 0 minutes) of the same compound?
A: 100%

Q: And the “% Drug Remaining” value ([2]; NADPH Neg, 30 minutes)?
A: 99%

Q: And the “% Drug Remaining” value ([2]; NADPH Neg, 60 minutes)?
A: 93%

Q: What about the “% Drug Remaining” value ([2]; NADPH Pos, 0 minutes) of the same compound?
A: 100%

Q: What about the “% Drug Remaining” value ([2]; NADPH Pos, 30 minutes) of the same compound?
A: 112%

Q: And the “% Drug Remaining” value ([2]; NADPH Pos, 60 minutes)?
A: 102%

Q: What about the “maximal decrease of area ratio” value ([2]; human liver microsomes lacking NADPH regeneration solution) of the same compound?
A: 7%

Q: And the pIC50 (SKOV3)?
A: 6.52 and 6.72
